Data taken from US8741889B2, “Method of treating non-small cell lung cancer and colon cancer with gamma-secretase inhibitor” (Hoffmann-La Roche Inc, priority 2008, dated 2014).

How the values were obtained:
[1] = system: truncated human Notch 1 processing; experiment: Cellular Notch luciferase reporter assay in HEK293 cells; type: cell-based
Description: Multiple in vitro assays were utilized to characterize the potency and selectivity of compound (1). The primary in vitro assay uses cell-free membrane preparations to provide the -secretase enzyme complex as an in vitro assay. […] The cellular processing of APP is measured using an ELISA-based readout. HEK293 cells have been engineered to over-express APP. Processing is measured by an ELISA-based quantitation of the A 1-40 secretase product. Cellular Notch inhibitory activity is measured using HEK293 cell line stably expressing a truncated human Notch 1 fused in its intracellular domain to a VP16/[…] transcriptional activator, which drives a firefly luciferase gene Inhibition of Notch processing produces a reduction in luciferase reporter activity as measured by its chemo luminescence.

[2] = system: MiaPaca2 human pancreatic carcinoma xenografts; experiment: Antitumor efficacy in MiaPaca2 pancreatic xenografts in nude mice; type: in vivo; conditions: day 37
Description: Female (athymic nu/nu) nude mice were obtained from Charles River Laboratories (Wilmington, Mass.), while female SCID-beige mice were purchased from Taconic (Germantown, N.Y.). Mice were used when they were approximately 8-12 weeks old (nudes) or 8-10 weeks old (SCID-beige), and weighed approximately 23-25 grams. The health of all animals was determined daily by gross observation of experimental animals and by the analyses of blood samples of sentinel animals that were housed on the shared shelf racks. All animals were allowed to acclimate and recover from any shipping related stress for a minimum of 72 hours prior to experimental use. Autoclaved water and irradiated food [5058-ms Pico chow (mouse) Purina, Richmond, Ind.] were provided ad libitum, and the animals were maintained on a 12 hour light and dark cycle. Cages, bedding and water bottles were autoclaved before use and were changed weekly. MiaPaca2, AsPC1 and BxPC3 human pancreatic carcinoma cells were purchased from ATCC (Manassas, Va.). BxPC3 and AsPC1 cells were grown in RPMI medium and MiaPaca2 cells were grown in Dulbecco's Modified Essential Medium (DMEM). All culture media were supplemented with 10% (v/v) FBS and 1% (v/v) […]. […] SCID-biege mice were implanted se with 5×10^6 BxPC3 cells in a 1:1 mixture of matrigel:PBS in a volume of 0.2 ml per mouse in the right hind flank on May 22, 2007. […] Formulated compound and vehicle were stored at 4° C. and prepared weekly. The suspension was mixed vigorously prior to administration. Gemcitabine (Gemzar®, Eli Lilly and Company, Indianapolis, Ind., USA) was reconstituted with sterile saline to yield a stock solution of 38 mg/ml for the entire 3-4 week study. […] Nude mice implanted with MiaPaca2 or AsPC1 xenografts were randomized on day 17 and day 9 post cell implant, respectively. SCID-beige mice bearing BxPC3 xenografts were randomized 8 days post implant. […] Treatment for the MiaPaca2 study began on Feb. […] For the MiaPaca2 and AsPC1 studies, qd Compound (1) suspension or q3d gemcitabine treatment ended on day 37 post tumor cell implant, whereas for the BxPC3 study, qd Compound (1) suspension or q3d gemcitabine treatment ended on day 35 post tumor cell implant. For intermittent dosing of Compound (1) suspension in the MiaPaca2 study using the 7+/7−/7+ schedule, treatment ended on day 23, was reinitiated on day 31, and ended day 37. In the combination groups Compound (1) suspension was given sequentially with gemcitabine using the 7+/7−/7+ schedule so that Compound (1) was dosed daily only during the first and third weeks, whereas gemcitabine was dosed q3d during the second week only. Efficacy data was graphically represented as the mean tumor volume+standard error of the mean (SEM). Tumor volumes of treated groups were presented as percentages of tumor volumes of the control groups (% T/C), using the formula: 100×((T−T0)/(C−C0)), where T represented mean tumor volume of a treated group on a specific day during the experiment, T0 represented mean tumor volume of the same […] on the first day of treatment; C represented mean tumor volume of a control group on the specific day during the experiment, and C0 represented mean tumor volume of the same treated group on the first day of treatment. Tumor volume (in cubic millimeters) was calculated using the ellipsoid formula: (D×(d2))/2 where ‘D’ represents the large diameter of the tumor, and ‘d’ represents the small diameter. In some cases, tumor regression and/or percent change in tumor volume was calculated using the formula: ((T−T0)/T0)×100 where ‘T’ represents mean tumor volume of the treated group at a particular day, and ‘T0’ represents mean tumor volume of the same treated group at initiation of treatment. Statistical analysis was determined by the rank sum test and One Way Anova and a post-hoc Bonferroni t-test (SigmaStat, version 2.0, Jandel Scientific, San Francisco, Calif.). […]

For CC(C)(C(=O)NCC(F)(F)C(F)(F)F)C(=O)N[C@@H]1C(=O)Nc2ccccc2-c2ccccc21 [Compound (1), 2,2-Dimethyl-N—((S)-6-oxo-6,7-dihydro-5H-dibenzo[b,d]azepin-7-yl)-N′-(2,2,3,3,3-pentafluoro-propyl)-malonamide], the IC50 [1] was 5 nM, the “% TGI” value ([2]; 1 mg/kg po qd × 21 days) was 39% and the “% TGI” value ([2]; 3 mg/kg po qd × 21 days) was 42%. The “% TGI” value ([2]; 10 mg/kg po qd × 21 days) was 53%, the “% TGI” value ([2]; 10 mg/kg po, 7+/7−/7+) was 51% and the “% TGI” value ([2]; 30 mg/kg po, 7+/7−/7+) was 58%. The “% TGI” value ([2]; 60 mg/kg po, 7+/7−/7+) was 48%.
